# Reference: patent US11787802B2, “Dihydrobenzimidazolones for medical treatment” (C4 Therapeutics, Inc., priority 2017, dated 2023)
# Target: hCereblon(M1-L442)_hDDB1(M1-H1140) (Homo sapiens (Human), UniProt Q96SW2)
# Experiment: Fluorescence direct binding protocol (tryptophan fluorescence titration)
# Conditions: fluorescence titration at 20° C., excited at 280 nm, recorded at 340 nm; protein 5.0 E−8 M; assay buffer 50 mM Hepes 7.4 200 mM NaCl; read-out: Fluorescence h-Cereblon_DDB1 Mean Kd_EQ
# Method in brief: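 At 20° C., protein at constant concentration was titrated with ligand in DMSO over at least 12 steps, exciting tryptophan at 280 nm and reading emission at 340 nm. Intensities were corrected for dilution and filter effect, and Kd was fitted assuming 1:1 binding.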
# Sequence of hCereblon(M1-L442)_hDDB1(M1-H1140) (Q96SW2 whole entry): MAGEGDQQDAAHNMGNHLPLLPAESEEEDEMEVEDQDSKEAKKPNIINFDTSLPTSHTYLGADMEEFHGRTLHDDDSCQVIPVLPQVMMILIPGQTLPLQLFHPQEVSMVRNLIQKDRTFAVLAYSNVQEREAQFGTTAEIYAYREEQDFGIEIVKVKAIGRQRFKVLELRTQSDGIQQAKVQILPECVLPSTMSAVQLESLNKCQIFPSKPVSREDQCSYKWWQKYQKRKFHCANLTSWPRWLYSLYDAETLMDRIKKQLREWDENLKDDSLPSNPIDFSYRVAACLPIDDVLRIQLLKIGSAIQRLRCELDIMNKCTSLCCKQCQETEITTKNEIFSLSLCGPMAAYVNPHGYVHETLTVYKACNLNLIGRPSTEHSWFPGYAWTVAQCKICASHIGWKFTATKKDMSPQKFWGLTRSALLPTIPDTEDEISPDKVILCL
# Sequence of hCereblon(M1-L442)_hDDB1(M1-H1140) (Q16531 whole entry partner): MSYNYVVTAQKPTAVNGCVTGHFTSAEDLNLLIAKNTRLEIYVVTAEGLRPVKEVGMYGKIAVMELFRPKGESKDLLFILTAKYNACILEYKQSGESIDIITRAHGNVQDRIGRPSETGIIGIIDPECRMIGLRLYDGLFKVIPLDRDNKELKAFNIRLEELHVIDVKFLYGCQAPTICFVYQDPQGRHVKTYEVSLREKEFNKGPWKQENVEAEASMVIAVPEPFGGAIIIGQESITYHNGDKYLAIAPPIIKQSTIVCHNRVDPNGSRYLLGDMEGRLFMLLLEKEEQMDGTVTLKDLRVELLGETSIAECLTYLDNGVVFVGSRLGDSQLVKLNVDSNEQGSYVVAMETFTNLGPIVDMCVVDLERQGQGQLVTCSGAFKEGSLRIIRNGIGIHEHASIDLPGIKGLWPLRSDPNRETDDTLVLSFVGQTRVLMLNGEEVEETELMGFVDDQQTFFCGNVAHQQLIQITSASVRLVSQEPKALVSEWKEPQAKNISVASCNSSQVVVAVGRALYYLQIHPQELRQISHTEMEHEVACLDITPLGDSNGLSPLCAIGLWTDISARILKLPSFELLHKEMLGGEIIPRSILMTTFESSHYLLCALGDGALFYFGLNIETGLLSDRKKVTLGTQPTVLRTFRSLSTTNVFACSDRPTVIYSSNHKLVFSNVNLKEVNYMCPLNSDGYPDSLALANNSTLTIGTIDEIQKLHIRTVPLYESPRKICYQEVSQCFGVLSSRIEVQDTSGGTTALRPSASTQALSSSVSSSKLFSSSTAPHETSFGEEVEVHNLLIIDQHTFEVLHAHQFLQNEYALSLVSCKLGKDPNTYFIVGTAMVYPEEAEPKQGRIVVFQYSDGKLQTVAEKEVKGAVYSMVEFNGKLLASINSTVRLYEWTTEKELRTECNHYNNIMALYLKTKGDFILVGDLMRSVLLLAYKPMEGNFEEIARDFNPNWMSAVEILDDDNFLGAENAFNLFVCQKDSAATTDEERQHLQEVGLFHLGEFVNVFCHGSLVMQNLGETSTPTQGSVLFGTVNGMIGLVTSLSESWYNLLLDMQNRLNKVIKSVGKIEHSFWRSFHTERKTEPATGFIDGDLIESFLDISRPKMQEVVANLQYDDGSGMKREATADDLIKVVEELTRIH
row,Compound,Kd [nM]
1,"O=C(Nc1ccc2[nH]c(=O)[nH]c2c1)N1CCN(Cc2ccc(Cl)cc2)CC1 [Example 135, 4-(4-Chlorobenzyl)-N-(2-oxo-2,3-dihydro-1H-benzo[d]imidazol-5-yl)piperazine-1-carboxamide]",7
2,"O=c1[nH]c2ccc(NC3CCN(Cc4ccccc4)CC3)cc2[nH]1 [Example 152, 5-((1-Benzylpiperidin-4-yl)amino)-1,3-dihydro-2H-benzo[d]imidazol-2-one]",21
3,"CC(=O)Nc1ccc(NCc2ccc3[nH]c(=O)[nH]c3c2)cc1 [Example 146, N-(4-(((2-Oxo-2,3-dihydro-1H-benzo[d]imidazol-5-yl)methyl)amino)phenyl)acetamide]",18
4,"Nc1ccc(CC(=O)Nc2ccc3[nH]c(=O)[nH]c3c2)cc1 [Example 70, 2-(4-Aminophenyl)-N-(2-oxo-2,3-dihydro-1H-benzo[d]imidazol-5-yl)acetamide]",1
5,"O=c1[nH]c2ccc(-c3ccc(F)cc3F)cc2[nH]1 [Example 38, 5-(2,4-Difluoro-phenyl)-1,3-dihydro-benzoimidazol-2-one]",82
6,"COC(=O)c1ccc(S(=O)(=O)Nc2ccc3[nH]c(=O)[nH]c3c2)cc1 [Example 118, Methyl 4-(N-(2-oxo-2,3-dihydro-1H-benzo[d]imidazol-5-yl)sulfamoyl)benzoate]",82
7,"CNC(=O)c1ccc2c(c1)nc(C1CCOCC1)n2-c1ccc2[nH]c(=O)[nH]c2c1 [Example 64, N-Methyl-2′-oxo-2-(tetrahydro-2H-pyran-4-yl)-2′,3′-dihydro-1′H-[1,5′-bibenzo[d]imidazole]-5-carboxamide]",45
